Data on one compound can be found in patent US20230331674A1 (priority 2020, published 2023).

One data set deals with HepG2 cells. Kind of data set: Metabolic activity assay (cytotoxicity) in HepG2 cells. As to conditions: 24 h. How it is done: HepG2 cells (1×10^4 cells/well) were treated for 24 h with the appropriate concentrations of the compounds of interest or the corresponding vehicle (control cells), in triplicates in 96-well plates. The metabolic activities were determined using the CellTiter 96 Aqueous One Solution Cell Proliferation Assay (Promega, WI/USA), according to the manufacturer instructions.

Another data set can be described thus: Plasma stability. The class given is in vitro ADME. As to conditions: human, 37° C., 2 h incubation, read-out: In vitro half-life in human plasma. The protocol: Propoxycaine and propantheline were tested as reference compounds simultaneously in each assay. The incubation was performed in a 37° C. water bath for 2 h. An aliquot of the incubation mixture was transferred to acetonitrile at 0, 0.5, 1, 1.5 and 2 h, respectively. Samples were then mixed and centrifuged. Supernatants were used for HPLC-MS/MS analysis using selected reaction monitoring, and peak areas were recorded for each analyte. The HPLC conditions consisted of a binary LC pump with autosampler, a C18 column (2×20 mm), and gradient elution. The area of precursor compound remaining after each time points relative to the amount remaining at time zero, expressed as percent, is calculated. Subsequently, the half-life (t1/2) was estimated from the slope of the initial linear range of the logarithmic curve of the compound remaining (%) versus time, assuming first order kinetics.

A short description of data set [1]: Metabolic stability in cryopreserved hepatocytes. As to conditions: both sexes, pH 7.3, human hepatocytes. The data set is classed as in vitro ADME. How it is done: Cryopreserved hepatocytes (mixed gender and pool of 10 or more) were thawed, washed, and resuspended in Krebs-Heinslet buffer (pH 7.3). […] The reaction was stopped by adding acetonitrile into the incubation mixture. Samples were then mixed, transferred completely to another 96-well plate, and centrifuged. Supernatants were used for HPLC-MS/MS analysis. As reference substances, four compounds were tested in each assay. Propranolol is relatively stable, whereas flurazepam, naloxone and 7-hydroxy-4-trifluoromethylcoumarin (HFC) are readily metabolized in human hepatocytes. In the HPLC-MS/MS analysis peak areas corresponding to the test compounds were recorded. Metabolic stability, expressed as percentage of the parent compound remaining, was calculated by comparing the peak area of the compound at the time point relative to that at time 0. The half-life (t1/2) was estimated from the slope of the initial linear range of the logarithmic curve of the compound remaining (%) versus time, assuming first order kinetics. The apparent intrinsic clearance (Clint in μL/min/million cells) was calculated from the half-life according to the following formula:
Clint=0.693/(t1/2×million cells/μL) (5).

The half-life is the time needed for the level to fall by half in the phase considered. As a reminder, the hepatocyte CLint is a measure of how fast metabolising enzymes remove a compound, apart from limits set by blood flow. `COCCN(CC1CCCN(Cc2ccccc2)C1)S(=O)(=O)c1ccc2ccccc2c1` (racemic) [(±)-N-((1-benzylpiperidin-3-yl)methyl)-N-(2-methoxyethyl)naphthalene-2-sulfonamide] came in with an LD50 in the data set on HepG2 cells of 58.67 µM. For the same compound, the half-life at 1 μM in “Plasma stability” was greater than 120 min; in data set [1] (0.7 million viable cells per mL, read-out: In vitro half-life in cryopreserved hepatocytes), 54 min. Also, in data set [1] (read-out: Hepatocyte clearance (Clint)), the hepatocyte CLint at 1 μM was 18.2 µL/min/1e6 cells.
